Data from article PMC9127867, “Analysis of the β-Glucosidase Family Reveals Genes Involved in the Lignification of Stone Cells in Chinese White Pear (Pyrus bretschneideri Rehd.)” (Frontiers in Plant Science, 2022).

Molecular target: T1, GST-PbBGLU1 (Pyrus x bretschneideri, UniProt Z9UO32JHD5)
T1 construct: full-length CDS in pGEX4T-1, N-terminal GST tag kept, E. coli BL21(DE3)
T1 sequence (Z9UO32JHD5 522-1019 limits assumed): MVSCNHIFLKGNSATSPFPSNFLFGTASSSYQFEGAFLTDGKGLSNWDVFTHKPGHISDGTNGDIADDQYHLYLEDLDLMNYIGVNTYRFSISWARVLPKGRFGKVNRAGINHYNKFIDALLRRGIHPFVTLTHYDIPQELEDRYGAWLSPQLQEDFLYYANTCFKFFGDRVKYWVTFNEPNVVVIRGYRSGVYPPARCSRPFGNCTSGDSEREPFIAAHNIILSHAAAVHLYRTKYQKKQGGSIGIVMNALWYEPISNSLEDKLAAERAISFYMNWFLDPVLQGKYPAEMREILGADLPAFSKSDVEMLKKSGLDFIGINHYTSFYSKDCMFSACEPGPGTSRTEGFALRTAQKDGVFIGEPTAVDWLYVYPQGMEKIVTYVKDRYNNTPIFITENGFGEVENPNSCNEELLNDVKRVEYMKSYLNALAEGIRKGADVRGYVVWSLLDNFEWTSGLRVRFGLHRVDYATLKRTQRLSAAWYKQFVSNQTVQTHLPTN
Experiment: HPLC of product, double reciprocal plot
Type: biochemical
Conditions: 35 °C, PBS pH 7.2–7.4, 50 mM MgSO4, 200 mM KCl, 0.1% β-mercaptoethanol
From the text: HPLC of product, double reciprocal plot on GST-PbBGLU1

With `COc1cc(/C=C/CO)ccc1O[C@@H]1O[C@H](CO)[C@@H](O)[C@H](O)[C@H]1O` [coniferin] the Km was 103 ± 3.89 µM.

With `COc1cc(/C=C/CO)cc(OC)c1O[C@@H]1O[C@H](CO)[C@@H](O)[C@H](O)[C@H]1O` [syringin] the Km was 101 ± 6.51 µM.
